From US6887904B2, “Substituted arylcycloalkanes, compositions containing them and use thereof” (Aventis Pharma S. A., priority 2001, dated 2005)

Legend:
HDMEC cells [1] = assay: Inhibition of proliferation of HDMEC cells; format: cell-based; conditions: Homo sapiens
HeLa cells = assay: Inhibition of proliferation of HeLa cells ([14C]-thymidine incorporation); format: cell-based, human
Protocol: The proliferation of HeLa cells is assessed by measuring the incorporation of [^14C]-thymidine in the following way. The HeLa cells (epithelial tumor cells of human origin) are cultured in a DMEM medium (Gibco) which contains 10% fetal calf serum and antibiotics (1% penicillin, 1% streptomycin). To carry out the proliferation test, the cells are inoculated into 96-well cytostar microplates (Amersham), at a rate of 5 000 cells per well. [^14C]-thymidine (0.1 μCi/well) and the products to be assessed are then added. Variable concentrations of product up to 10 μM are used; the DMSO (solvent used to dissolve the products) should not exceed 0.5% in the medium. After incubation for 48 hours at 37° C., the radioactivity incorporated into the cells is measured by counting the plate in a TRI-LUX counter (Wallac). The IC50 value is defined as the concentration of product which reduces the radioactivity by 50% relative to an untreated control. A product whose IC50 value is less than 1 μM is considered as cytotoxic.

Tubulin = Tubulin (Sus scrofa, UniProt P02550+P02554); assay: Inhibition of tubulin polymerization (turbidimetry); format: biochemical, pig; conditions: tubulin 10 μM, 37° C., turbidity at 350 nm
Protocol: Tubulin is purified from pig brains according to the published methods (Shelanski et al., 1973, Proc. Natl, Acad. Sci. USA, 70, 765-768. Weingarten et al., 1975, Proc. Natl, Acad. Sci. USA, 72, 1858-1862). Briefly, the brains are ground and centrifuged in an extraction buffer. The tubulin, contained in the extract supernatant, is subjected to two successive cycles of polymerization at 37° C. and depolymerization at 4° C., before being separated from the MAPs (Microtubule Associated Proteins) by chromatography on a phosphocellulose P11 column (Whatman). The tubulin thus isolated is more than 95% pure. It is stored in a buffer known as RB/2 30% glycerol, the composition of which is MES-NaOH [2-(N-morpholino)ethanesulfonic acid] 50 mM, pH 6.8; MgCl2 0.25 mM; EGTA 0.5 mM; 30% glycerol (v/v), GTP (guanosine 5′-triphosphate) 0.2 mM. The polymerization of the tubulin into microtubules is monitored by turbidimetry as follows; the tubulin is adjusted to a concentration of 10 μM (1 mg/ml) in the RB/2 30% glycerol buffer, to which is added 1 mM GTP and 6 mM MgCl2. The polymerization is initiated by increasing the temperature from 6° C. to 37° C. in a cuvette with a 1 cm optical pathlength, placed in a Uvikon 931 spectrophotometer (Kontron) equipped with a thermostatically-regulated cuvette holder. The increase in the turbidity of the solution is monitored at 350 nm. The products are dissolved at 10 mM in DMSO and added at variable concentrations (0.5 to 10 μM) to the tubulin solution before polymerization. The IC50 value is defined as the concentration of product which inhibits 50% of the rate of polymerization. A product whose IC50 value is less than or equal to 3 μM is considered as very active.

HDMEC cells [2] = assay: Detachment effect on HDMEC endothelial cells; format: cell-based, human; conditions: treatment for two hours
Source text: A test to determine the detachment of endothelial cells was established in order to select the products on the basis of their “in vitro” activity. This test for determining the endothelial cell detachment is characterized in that the endothelial cells, inoculated in plates which are coated at the bottom with a binder, e.g., chosen from gelatin, fibronectin or vitronectin, after culturing, are supplemented with a medium containing the test compound, and the cells are then labeled with a fluorescent substance, the cells which become detached are removed by washing and the fluorescence of the remaining cells is counted in a fluorimeter.
This test consists in measuring the detachment of endothelial cells cultured on substrates based on a binder, e.g., chosen from fibronectin, vitronectin and gelatin. […] The fluorescence of the remaining cells is counted in a fluorimeter. […]
The assessment of the detachment of the endothelial cells in vitro is determined in the following way. […] The fluorescence of the cells which remain attached to the substratum of the well is counted using a fluorimeter, Spectrafluor Plus (Tecan, excitation at 485 nm, and emission at 535 nm). The data are the average of six different samples and are expressed as a percentage of the control (untreated cells). […]
The assessment of the detachment of the endothelial cells in vitro is determined in the following way. […]

Tubulin, sequence (P02554 whole entry): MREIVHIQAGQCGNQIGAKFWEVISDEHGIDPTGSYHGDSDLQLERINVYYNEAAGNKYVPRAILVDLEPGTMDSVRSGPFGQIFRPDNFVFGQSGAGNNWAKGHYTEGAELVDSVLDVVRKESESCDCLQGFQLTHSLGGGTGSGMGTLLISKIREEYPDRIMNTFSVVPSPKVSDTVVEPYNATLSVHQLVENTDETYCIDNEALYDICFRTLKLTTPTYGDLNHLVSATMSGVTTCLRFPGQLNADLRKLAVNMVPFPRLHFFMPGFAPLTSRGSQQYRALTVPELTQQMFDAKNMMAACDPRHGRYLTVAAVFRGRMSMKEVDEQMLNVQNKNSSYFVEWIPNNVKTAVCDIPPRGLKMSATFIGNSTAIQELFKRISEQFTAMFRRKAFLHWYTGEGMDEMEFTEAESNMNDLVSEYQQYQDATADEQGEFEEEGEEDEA
Tubulin, sequence (P02550 whole entry): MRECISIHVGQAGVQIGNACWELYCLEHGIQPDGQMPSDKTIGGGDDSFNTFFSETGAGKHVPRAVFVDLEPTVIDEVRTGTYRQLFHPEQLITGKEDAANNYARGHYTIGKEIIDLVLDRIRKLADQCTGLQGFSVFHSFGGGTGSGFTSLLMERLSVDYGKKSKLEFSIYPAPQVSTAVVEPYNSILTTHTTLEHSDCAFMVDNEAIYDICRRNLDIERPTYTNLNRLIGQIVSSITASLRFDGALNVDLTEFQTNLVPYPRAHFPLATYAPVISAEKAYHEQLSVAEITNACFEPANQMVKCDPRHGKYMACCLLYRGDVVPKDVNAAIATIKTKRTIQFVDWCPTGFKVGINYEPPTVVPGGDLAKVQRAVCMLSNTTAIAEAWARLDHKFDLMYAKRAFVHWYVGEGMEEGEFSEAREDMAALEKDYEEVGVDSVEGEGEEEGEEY

Row | IC50 (HeLa cells; Homo sapiens, HeLa, 48 hours) [nM] | SMILES | IC50 (HDMEC cells [1]) [nM] | IC50 (HeLa cells; 48 hours) [nM] | IC50 (HeLa cells; Homo sapiens, HeLa, 48 h) [nM] | IC50 (Tubulin) [nM] | Percentage of detachment of HDMEC cells induced with the compound cited in the example at a concentration of 1 μM (HDMEC cells [2])
1 |  | COc1cc(C(=O)C2CC2c2ccc(N(C)C)cc2)cc(OC)c1OC (racemic) [Example 2, [2-(4-Dimethylaminophenyl)cyclopropyl](3,4,5-trimethoxyphenyl)methanone, trans racemate] | 4000 | 1450 | 1350 | 2500 | 
2 |  | COc1ccc(C2CC2C(=O)c2cc(OC)c(OC)c(OC)c2)cc1O (racemic) [Example 1, [2-(3-Hydroxy-4-methoxyphenyl)cyclopropyl](3,4,5-trimethoxyphenyl)methanone, trans racemate] | 17 to 18 |  | < 1.9 | 1000 | 36-37%
3 | 520 to 1060 | COc1ccc(C2C3C=CC(C3)C2C(=O)c2cc(OC)c(OC)c(OC)c2)cc1O (racemic) [Example 3, [2-(3-Hydroxy-4-methoxyphenyl)bicyclo[2.2.1]hept-4-enyl](3,4,5-trimethoxyphenyl)methanone, trans racemate] |  |  |  | 4500 | 
